Article PMC8810776, “Gut microbiome of the largest living rodent harbors unprecedented enzymatic systems to degrade plant polysaccharides” (Nature Communications, 2022)
One block for each compound: values may come before it.

Columns and labels:
Test in all cases: substrate saturation curve, initial velocities
[1] = test system: T1, CapGH97; format: biochemical, Bacteroidaceae bacterium MAG57; conditions: pH 7.0, 35 °C, 70 mM McIlvaine buffer, 5 mM CaCl2
T1 construct: recombinant in E. coli BL21, pET28a, N-terminal 6xHis-tag cleaved with trypsin; gene of cluster CC102
Description: substrate saturation curve, initial velocities on CapGH97

[2] = test system: O=[N+]([O-])c1ccc(O[C@@H]2O[C@H](CO)[C@H](O)[C@H](O)[C@H]2O)cc1; format: biochemical, Bacteroides xylanisolvens; conditions: pH 7.5, 45 °C
Description: substrate saturation curve, initial velocities on BXY_26070 (CBK67650)

[3] = test system: T2, CapGH43_12; format: biochemical, Bacteroidaceae bacterium MAG57; conditions: pH 6.5, 35 °C, 70 mM McIlvaine buffer
T2 construct: recombinant in E. coli BL21, pET28a, N-terminal 6xHis-tag cleaved with trypsin; gene of cluster CC102
Description: substrate saturation curve, initial velocities on CapGH43_12

[4] = test system: T3, CapGH173; format: biochemical, Bacteroidales bacterium MAG42; conditions: pH 7.5, 45 °C, 70 mM McIlvaine buffer
T3 construct: recombinant in E. coli BL21, pET28a, N-terminal 6xHis-tag cleaved with trypsin
Description: substrate saturation curve, initial velocities on CapGH173

Km [1]: 7700 ± 610 µM
Compound: O=[N+]([O-])c1ccc(O[C@H]2O[C@H](CO)[C@H](O)[C@H](O)[C@H]2O)cc1 [pNP-α-D-Gal, p-nitrophenyl-α-D-galactopyranoside]

Compound: BXY_26070 (CBK67650) (Bacteroides xylanisolvens XB1A)
Km [2]: 1190 ± 350 µM
kcat [2]: 29.9 ± 1.95 s⁻¹
kcat/Km [2]: 25100 M⁻¹ s⁻¹

Km [3]: 2740 ± 290 µM
Compound: O=[N+]([O-])c1ccc(O[C@@H]2O[C@@H](CO)[C@H](O)[C@H]2O)cc1 [pNP-α-L-AraF, p-nitrophenyl-α-L-arabinofuranoside]

Km [4]: 570 ± 50 µM
Compound: O=[N+]([O-])c1ccc(O[C@@H]2O[C@H](CO)[C@H](O)[C@H](O)[C@H]2O)cc1 [pNP-β-D-Gal, p-nitrophenyl-β-D-galactopyranoside]
